Experiments:
human liver microsomes = experiment: Incubation of F18 with human liver microsomes, metabolite profiling by LC-MS/MS; format: in vitro ADME; design: key: +: Metabolite detected; −: metabolite not detected; settings: F18 50 μM, 1 h
Procedure: (§1) A stock solution of F18 (5 mM) was prepared in methanol. F18 (50 μM) was incubated with RLMs/DLMs/MLMs/HLMs and HLcy (0.5 mg protein/mL) in 50 mM Tris-HCl buffer containing 5 mM MgCl2 (pH 7.4) in a final volume of 200 μL. The final concentration of methanol in the incubation system was 1% (v/v). After 3 min of preincubation at 37°C, the reactions were initiated by the addition of NADPH-regenerating system (10-mM β-NADP, 100-mM 6-G-P and 10-U/mL 6-G-P-DH) or NADH. After incubation for 1 h, the reactions were terminated by the addition of two volumes of ice-cold acetonitrile. Samples without NADPH or NADH were included as controls. The incubation mixture was vortexed and centrifuged at 13,300 × g for 5 min. A 10 μL aliquot of the supernatant was injected into an LC-tandem mass spectrometer (LC-MS/MS) for analysis.
(§2) Metabolic profiling studies were performed with a Finnigan TSQ Quantum MS instrument with an electrospray ionization probe and a Finnigan SURVEYOR HPLC system (Thermo Finnigan, San Jose, CA, USA). HPLC was performed with a Zorbax SB-C18 column (2.1 × 100 mm, 3.5 μm, Agilent Corporation, CA, USA) with a column temperature of 35°C and a flow rate of 200 μL/min. F18 and its metabolites were eluted using a linear gradient method with a mobile phase consisting of solvent A (water with 0.1% formic acid) and solvent B (acetonitrile with 0.1% formic acid). […] The samples were analyzed in the positive-ionization mode, and the TSQ capillary temperature was set to 350°C. Nitrogen was used as both the sheath gas and the auxiliary gas and was delivered at 30 psi and 15 psi, respectively. The spray voltage and tube lens were set to 3,800 V and 123 V, respectively. The full-width half maximum (FWHM) was set to 0.7. MS data were acquired in the selective ion-recording mode or by collecting full scans from 200 to 600 m/z at 1 scan/s. The mass spectrometer and HPLC system were operated using Xcalibur 2.0.7 software.

dog liver microsomes = experiment: Incubation of F18 with dog liver microsomes, metabolite profiling; format: in vitro ADME, beagle dog; design: key: +: Metabolite detected; −: metabolite not detected; settings: F18 50 μM, 1 h
Procedure: as §1, §2

[1] = Pharmacokinetics in rats after oral administration of F18; format: in vivo, Sprague-Dawley rats; settings: oral F18 50 mg/kg; for Cmax / Tmax / half-life / MRT last / MRT inf: Sprague-Dawley; for Cmax / Tmax / half-life / MRT last / MRT inf / AUC0−∞ / Systemic exposure relative to that of the parent drug: rat blood; for Cmax / Tmax / half-life / MRT last / MRT inf / AUC0−∞: mean ± SD, n = 5; for MRT last: read-out: MRT0−t; for MRT inf: read-out: MRT0−∞; for Systemic exposure relative to that of the parent drug: from AUC0−∞
Procedure: To investigate the pharmacokinetic characteristics of F18 and its major metabolites, five rats were intragastrically administered F18 at a dose of 50 mg/kg. Blood samples were collected in heparinized ice-bath tubes from the suborbital veniplex at 0, 0.25, 0.5, 1, 2, 4, 6, 8, 12, 16, and 24 h postdose. The blood concentrations of F18 and its major metabolites were determined by LC-MS/MS and their pharmacokinetic parameters were calculated through non-compartmental analysis using WinNonlin Version 6.1 (Pharsight, Mountain View, CA, USA).
For the blood samples, F18, M1, M3-1, and M3-2 were simultaneously quantified using the following elution gradient: Solvent B was maintained at 15% for 2 min, increased to 85% in 1 min, maintained at 85% for 5 min, decreased to 15% in 0.5 min and maintained at 15% for 4.5 min. Detection was also performed using a Finnigan TSQ Quantum MS instrument with an electrospray ionization probe operated in the positive mode.
Calibration curves for F18 and its metabolites were fitted via linearly weighted (1/x^2) least-squares regression. The correlation coefficient values of F18 and its metabolites in the incubations were >0.99 for the range 10–5,000 nM; the LOQ was 10 nM with a signal-to-noise ratio >10:1; the accuracies were 90–113% and the precisions (RSD) were <10.5%. In the blood samples, the correlation coefficient values for F18, M1, M3-1, and M3-2 were >0.99 for the range 5–2,000 nM; the LOQ was 5 nM with the signal-to-noise ratio >10:1; the accuracies were 91–112% and the precisions (RSD) were <9.6%. In addition, no interference was found in the retention time of each analyte in both the incubated samples and the blood samples.

VSV-G/HIV-1 viruses = experiment: microbe, parasite or virus in culture; format: cell-based; settings: for IC50: Human immunodeficiency virus 1, HEK-293T, 48 h, read-out: IC50, inhibition of HIV-1 replication
recombinant FMO5 = molecular target: T1, recombinant FMO5 (Homo sapiens, UniProt P49326); experiment: Metabolism of F18 by cDNA-expressed FMO5; format: in vitro ADME; settings: F18 10 μM, 50 pmol/mL enzyme, 1 h
T1 construct: purchased BD Gentest (Woburn, MA, USA)
T1 sequence (P49326 1-533): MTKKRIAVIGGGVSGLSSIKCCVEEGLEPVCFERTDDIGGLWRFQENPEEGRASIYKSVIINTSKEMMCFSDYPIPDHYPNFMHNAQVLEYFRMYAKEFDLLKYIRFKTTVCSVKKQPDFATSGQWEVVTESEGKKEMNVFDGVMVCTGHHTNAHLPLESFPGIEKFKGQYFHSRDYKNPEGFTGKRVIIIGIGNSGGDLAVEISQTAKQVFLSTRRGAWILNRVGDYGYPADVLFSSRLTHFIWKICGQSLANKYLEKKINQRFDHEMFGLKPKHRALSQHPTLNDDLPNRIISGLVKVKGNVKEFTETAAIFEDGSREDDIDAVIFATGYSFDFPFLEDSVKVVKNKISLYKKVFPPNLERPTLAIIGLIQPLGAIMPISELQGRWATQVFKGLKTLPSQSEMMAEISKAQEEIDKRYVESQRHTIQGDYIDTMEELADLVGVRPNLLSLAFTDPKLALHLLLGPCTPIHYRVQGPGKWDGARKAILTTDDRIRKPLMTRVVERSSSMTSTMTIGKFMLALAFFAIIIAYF
Procedure: To further verify the roles of CYPs and FMOs in the metabolism of F18 in humans, F18 (10 μM) was incubated individually with 14 cDNA-expressed human CYP isozymes (50-pmol/mL CYP1A1, CYP1A2, CYP2A6, CYP2B6, CYP2C8, CYP2C9, CYP2C19, CYP2D6, CYP2E1, CYP2J2, CYP3A4, CYP4F2, CYP4F3, and CYP4A11) and three cDNA-expressed FMO enzymes (50-pmol/mL FMO1, FMO3, and FMO5). The incubation conditions were similar to those used for HLMs (described above), with the exception of the incubating time […]. Samples incubated without NADPH were used as the negative control.

SMILES | F18 metabolite detected in HLM (human liver microsomes) | F18 metabolite detected in DLM (dog liver microsomes) | Cmax [1] [nM] | Tmax [1] [h] | half-life [1] [h] | MRT last [1] [h] | MRT inf [1] [h] | Concentration in rat blood (in words) [1] | AUC0−∞ [1] | Potency against HIV-1 relative to the parent compound (VSV-G/HIV-1 viruses) | Metabolite detected in incubation with recombinant FMO5 (recombinant FMO5) | Systemic exposure relative to that of the parent drug [1] [%] | IC50 (VSV-G/HIV-1 viruses) [nM]
CCCc1cc(=O)oc2c3c(c4c(c12)OC(C)(C)C=C4)OC(CO)CC3=O (centres unmarked) [Metabolite M1] | + | + | 274 ± 111 | 4 ± 1.6 | 4.8 ± 2.1 | 8.4 ± 0.5 | 9.4 ± 1.5 | detected in high concentrations | 3,290 h^*nM | one fifth | not detected |  | 
CCCc1cc(=O)oc2c3c(c4c(c12)OC(C)(C)C=C4)O[C@H](CCl)C[C@@H]3O (relative stereo) [Metabolite M3-2, cis-12-hydroxy F18] | + | + | 219 ± 51.2 | 4 ± 2.3 | 3 ± 0.4 | 8.8 ± 1.2 | 13.2 ± 7.2 | detected in high concentrations | 3,353 h^*nM |  | detected | ~65 | 51
CCCc1cc(=O)oc2c3c(c4c(c12)OC(C)(C)C=C4)O[C@H](CCl)C[C@H]3O (relative stereo) [Metabolite M3-1, trans-12-hydroxy F18] | + | + | 165 ± 50.9 | 4 ± 2.3 | 3.4 ± 0.64 | 8.6 ± 0.6 | 8.9 ± 0.7 | detected in high concentrations | 1,965 h^*nM |  | detected | ~38 | 34

— article PMC5515859, “Metabolism of F18, a Derivative of Calanolide A, in Human Liver Microsomes and Cytosol” (Frontiers in Pharmacology, 2017)
